In the test the target is Rv2466c (rRv2466c; Mrx-2) (Mycobacterium tuberculosis, UniProt O53193).

This note sets out measurements from article PMC5952258, “Identification of a Mycothiol-Dependent Nitroreductase from Mycobacterium tuberculosis” (ACS Infectious Diseases, 2018).

Rv2466c (rRv2466c; Mrx-2), sequence (O53193 whole entry): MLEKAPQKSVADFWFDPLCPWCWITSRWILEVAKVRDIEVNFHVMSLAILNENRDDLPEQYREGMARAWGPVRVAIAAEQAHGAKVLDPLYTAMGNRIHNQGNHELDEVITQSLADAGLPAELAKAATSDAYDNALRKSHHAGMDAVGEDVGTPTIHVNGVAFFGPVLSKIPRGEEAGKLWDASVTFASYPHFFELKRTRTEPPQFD

As to `CC(=O)N[C@@H](CSSC[C@H](NC(C)=O)C(=O)N[C@H]1[C@@H](O[C@@H]2[C@H](O)[C@H](O)[C@@H](O)[C@H](O)[C@H]2O)O[C@H](CO)[C@@H](O)[C@@H]1O)C(=O)N[C@H]1[C@@H](O[C@@H]2[C@H](O)[C@H](O)[C@@H](O)[C@H](O)[C@H]2O)O[C@H](CO)[C@@H](O)[C@@H]1O` [mycothione], the melting temperature shift entry is listed as “MSSM also caused a significant shift in the melting temperature”.
